Legend:
Δ4, 5 glycuronidase [1] = test: Extended timecourse hydrolysis of non-heparin disaccharides; format: biochemical, F. heparinum; details: after approximately 18 hours, considerably higher enzyme concentrations
Method: None of the non-heparin disaccharides were hydrolyzed under the conditions for measuring substrate kinetics. […] At the same time, these disaccharides were slowly hydrolyzed to varying degrees when the enzyme reactions were conducted over a much longer timecourse (>12 hours) and at considerably higher enzyme concentrations. After approximately 18 hours, greater than 80% of monosulfated chondroitin disaccharide (ΔUGalNac6S) was hydrolyzed, whereas the non-sulfated chondroitin (ΔUGalNAc) and the hyaluronan disaccharide (ΔUH) were still present at approximately 40% and 65%, respectively. The importance of the linkage position is, therefore, not absolute. The apparently positive effect of chondroitin 6-O-sulfation within the galactosamine is consistent with our results for the heparin substrates and provides further evidence for the influence of this position in dictating substrate specificity.

[2] = biological target: T1, recombinant Δ4, 5 glycuronidase (Δ4,5^Δ20) (Pedobacter heparinus, UniProt C6Y1N7); test: Kinetic parameters of Δ4, 5 glycuronidase for disaccharide substrates (loss of absorbance at 232 nm, Michaelis-Menten fit); format: biochemical, F. heparinum; details: conditions for measuring substrate kinetics
T1 sequence (C6Y1N7 21-402): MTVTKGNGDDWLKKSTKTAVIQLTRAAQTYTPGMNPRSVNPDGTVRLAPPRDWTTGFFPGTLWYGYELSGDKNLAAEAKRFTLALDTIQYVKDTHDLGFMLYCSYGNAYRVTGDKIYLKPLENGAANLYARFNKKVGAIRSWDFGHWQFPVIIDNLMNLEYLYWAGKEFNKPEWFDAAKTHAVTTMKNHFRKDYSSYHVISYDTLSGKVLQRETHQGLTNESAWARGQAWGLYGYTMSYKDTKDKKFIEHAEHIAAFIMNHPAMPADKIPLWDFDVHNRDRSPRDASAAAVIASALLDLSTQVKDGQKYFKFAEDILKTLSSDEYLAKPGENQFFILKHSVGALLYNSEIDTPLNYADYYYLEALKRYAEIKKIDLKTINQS
Method: Assay for enzyme activity and determination of kinetic parameters. Standard reactions were carried out at 30° C. and included 100 mM sodium phosphate buffer, pH 6.4, 50 mM NaCl, 500 μM disaccharide substrate and 200 nM enzyme in a 100 μl reaction volume. Hydrolysis of heparin disaccharides was determined spectrophotometrically by measuring the loss of the Δ4, 5 chromophore measured at 232 nm Substrate hydrolysis was calculated using the following molar extinction coefficients empirically determined for each disaccharide substrate: ΔUHNAc, ε232=4,524; ΔUHNAc6S, ε232=4,300; ΔUHNS, ε232=6,600; ΔUHNS,6S, ε232=6,075; ΔUHNH26S, ε232=4,826; ΔU2SHNS, ε232=4,433. Initial rates (Vo) were extrapolated from linear activities representing <10% substrate turnover and fit to pseudo first-order kinetics. For kinetic experiments, disaccharide concentration for each respective substrate was varied from 48 to 400 μM concentrations. Km and kcat values were extrapolated from Vo vs. [S] curves fit to the Michaelis Menten equation by a non-linear, least squares regression.
The specificity of the Δ4, 5 glycuronidase acting on various glycosaminoglycan disaccharide substrates was investigated. The various substrates examined included both heparin and chondroitin disaccharides as well as an hyaluronadate. In particular, we considered the possibility of any structural discriminations pertaining to glycosidic linkage position (1→4 vs. 1→3) and relative sulfation state within the disaccharide. For each substrate, kinetic parameters were determined based on substrate saturation profiles that fit Michaelis-Menten assumptions (FIG. 8).

Δ4, 5 glycuronidase [3] = test: Detection of Δ4, 5 glycuronidase activity by capillary electrophoresis on heparinase-digested heparin; format: biochemical, F. heparinum
Method: Detection of Δ4, 5 glycuronidase activity by capillary electrophoresis. 200 μg of heparin (Celsus Laboratories) was subject to exhaustive heparinase digestion as described [Venkataraman, G., Shriver, Z., Raman, R., and Sasisekharan, R., 1999, Science 286, 537-42] with certain modifications that included a 50 mM PIPES buffer, pH 6.5 with 100 mM NaCl in a 100 μl reaction volume. Following heparinase treatment, 25 picomoles of Δ4, 5 glycuronidase was added to one-half of the original reaction (pre-equilibrated at 30° C.). 20 μl aliquots were removed at 1 minute and 30 minutes and activity quenched by heating at 95° C. for 10 minutes. 20 μl of the minus Δ4, 5 control (also heated for 10 minutes) was used as the 0 time point. Disaccharide products were resolved by capillary electrophoresis run for 25 minutes under positive polarity mode as previously described [Rhomberg, A. J., Ernst, S., Sasisekharan, R., and Biemann, K., 1998, Proc Natl Acad Sci USA 95, 4176-81].
In this manner, the Δ4, 5 should be very useful in assessing the composition of disaccharides resulting from prior heparinase treatment of heparin/heparan sulfate. For this particular experiment, we pre-treated 200 μg of heparin with a heparinase cocktail. This exhaustive digestion was then directly followed by a relatively short (1 minute) or long (30 minute) Δ4, 5 glycuronidase treatment carried out under optimal reaction conditions. The disaccharide products were then resolved by capillary electrophoresis. The electrophoretic mobility profile for the Δ4, 5 treated saccharides were then directly compared to the untreated control (i.e., heparinase treatment only) run under identical conditions (FIG. 9). 7 disaccharide peaks were present in the capillary electrophoretogram corresponding to the heparinase only control (A.). A structural assignment for each one of these peaks was made based on previously established compositional analyses. […] Predictably, the relative amplitude and area of these peaks remained the same, over the entire timecourse of the Δ4, 5 preincubation. This unchanging result extended to 18 hours. On the other hand, peaks corresponding to disaccharides lacking the 2-O sulfate were eliminated.

[4] = Pilot expression of the full-length enzyme in E. coli: solubility and activity
Description: Using PCR, we cloned from the F. heparinum genome both the full-length enzyme and the “mature” enzyme lacking the N-terminal 20 amino acid signal sequence (Δ4,5^Δ20) into a T7-based expression plasmid. Cloning into pET28a permitted the expression of the glycuronidase as an N-terminal 6× His-tag fusion protein. Pilot expression studies focused on the full-length enzyme. In these initial experiments, we examined several different induction conditions such as temperature, time and length of induction, and even IPTG concentrations.

**Q.** With `CC(=O)NC1C(O)OC(CO)C(O)C1OC1OC(C(=O)O)=CC(O)C1O` (stereo not shown) [ΔUH] as the molecule, how does the disaccharide still present (Δ4, 5 glycuronidase [1]) read?
**A.** The disaccharide still present was ~65%.

**Q.** With `O=C(O)C1=C[C@H](O)[C@@H](O)[C@H](O[C@H]2[C@H](O)[C@@H](NS(=O)(=O)O)C(O)O[C@@H]2COS(=O)(=O)O)O1` (stereo partly shown) [ΔUHNS, 6S] as the molecule, how does the “substrate status / substrate preference” value [2] read?
**A.** Its value is “roughly in the middle”.

**Q.** What about the “hydrolysis by 30 minutes Δ4, 5 treatment” value (Δ4, 5 glycuronidase [3]) of the same molecule?
**A.** Its value is “completely depleted”.

**Q.** And the “hydrolyzed after 1 minute Δ4, 5 treatment” value (Δ4, 5 glycuronidase [3])?
**A.** The value was “approximately 75%”.

**Q.** For `O=C(O)C1=C[C@H](O)[C@@H](OS(=O)(=O)O)[C@H](O[C@H]2[C@H](O)[C@@H](NS(=O)(=O)O)[C@@H](O)O[C@@H]2CO)O1` [ΔU2SHNS], which “substrate status / substrate preference” value [2] is on record?
**A.** Its value is “not a substrate”.

**Q.** For `N[C@H]1C(O)O[C@H](COS(=O)(=O)O)[C@@H](O[C@@H]2OC(C(=O)O)=C[C@H](O)[C@H]2O)[C@@H]1O` (stereo partly shown) [ΔUHNH2, 6S], which “substrate status / substrate preference” value [2] is on record?
**A.** Its value is “less good as substrates”.

**Q.** With `CC(=O)NC1C(O)OC(CO)C(O)C1OC1OC(C(=O)O)=CC(O)C1O` (stereo not shown) [ΔUGalNAc] as the molecule, how does the disaccharide still present (Δ4, 5 glycuronidase [1]) read?
**A.** The disaccharide still present was “approximately 40%”.

**Q.** With `CC(=O)N[C@H]1C(O)O[C@H](COS(=O)(=O)O)[C@@H](O[C@@H]2OC(C(=O)O)=C[C@H](O)[C@H]2O)[C@@H]1O` (stereo partly shown) [ΔUHNAc, 6S] as the molecule, how does the “substrate status / substrate preference” value [2] read?
**A.** Its value is “best substrates”.

**Q.** And the “hydrolysis after one minute Δ4, 5 treatment (in words)” value (Δ4, 5 glycuronidase [3])?
**A.** The value was “essentially hydrolyzed”.

**Q.** With `CC(=O)N[C@H]1C(O)O[C@H](COS(=O)(=O)[O-])[C@H](O)[C@@H]1OC1OC(C(=O)[O-])=C[C@H](O)[C@H]1O.[Na+].[Na+]` (stereo partly shown) [ΔUGalNac6S] as the molecule, how does the disaccharide hydrolyzed (Δ4, 5 glycuronidase [1]) read?
**A.** Its disaccharide hydrolyzed is “greater than 80%”.

**Q.** What does the source list for `O=C(O)C1=C[C@H](O)[C@@H](O)[C@H](O[C@H]2[C@H](O)[C@@H](NS(=O)(=O)O)C(O)O[C@@H]2CO)O1` (stereo partly shown) [ΔUHNS]?
**A.** substrate status / substrate preference [2]: less good as substrates; hydrolysis by 30 minutes Δ4, 5 treatment (Δ4, 5 glycuronidase [3]): completely depleted; hydrolyzed after 1 minute Δ4, 5 treatment (Δ4, 5 glycuronidase [3]): ~50%

**Q.** Which “substrate status / substrate preference” value [2] does the source give for `CC(=O)N[C@H]1C(O)O[C@H](CO)[C@@H](O[C@@H]2OC(C(=O)O)=C[C@H](O)[C@H]2O)[C@@H]1O` (stereo partly shown) [ΔUHNac] here?
**A.** The value was “best substrates”.

B1: full-length enzyme: full-length 402 amino acid Δ4, 5 glycuronidase, SEQ ID NO:3, expressed as N-terminal 6× His-tag fusion (protein, listed as Flavobacterium heparinum)
chain: MKSLLSAFVATIALIGSANGMTVTKGNGDDWLKKSTKTAVIQLTRAAQTYTPGMNPRSVNPDGTVRLAPPRDWTTGFFPGTLWYGYELSGDKNLAAEAKRFTLALDTIQYVKDTHDLGFMLYCSYGNAYRVTGDKIYLKPLENGAANLYARFNKKVGAIRSWDFGHWQFPVIIDNLMNLEYLYWAGKEFNKPEWFDAAKTHAVTTMKNHFRKDYSSYHVISYDTLSGKVLQRETHQGLTNESAWARGQAWGLYGYTMSYKDTKDKKFIEHAEHIAAFIMNHPAMPADKIPLWDFDVHNRDRSPRDASAAAVIASALLDLSTQVKDGQKYFKFAEDILKTLSSDEYLAKPGENQFFILKHSVGALLYNSEIDTPLNYADYYYLEALKRYAEIKKIDLKTINQS
modifications: N-terminal 6xHis tag
**Q.** For B1, which “solubility on recombinant expression” value ([4]; N-terminal 6× His-tag fusion, all induction conditions examined) is on record?
**A.** The value was “nearly exclusively as an insoluble fraction”.

**Q.** And the “activity of partially purified, solubilised enzyme” value ([4]; solubilised with detergents (e.g., CHAPS), salt, glycerol)?
**A.** Its value is “largely inactive”.

From patent US7951560B2, “Delta 4,5 glycuronidase compositions and methods related thereto” (Massachusetts Institute of Technology, priority 2002, dated 2011)
